Like-named read-outs stand apart in the source and are kept apart here.
What was measured:
hGIPR = target: T1, hGIPR (Homo sapiens, UniProt P48546); test: Functional cAMP formation (HTRF) in HEK-293 clonal cells expressing hGIPR, 0.1% bovine casein, without or with 1.0% human serum albumin; assay type: cell-based; settings: for Emax: percent of maximal response to GIP(1-42)NH2
T1 construct: expressed in transfected cells
T1 sequence (P48546 22-466): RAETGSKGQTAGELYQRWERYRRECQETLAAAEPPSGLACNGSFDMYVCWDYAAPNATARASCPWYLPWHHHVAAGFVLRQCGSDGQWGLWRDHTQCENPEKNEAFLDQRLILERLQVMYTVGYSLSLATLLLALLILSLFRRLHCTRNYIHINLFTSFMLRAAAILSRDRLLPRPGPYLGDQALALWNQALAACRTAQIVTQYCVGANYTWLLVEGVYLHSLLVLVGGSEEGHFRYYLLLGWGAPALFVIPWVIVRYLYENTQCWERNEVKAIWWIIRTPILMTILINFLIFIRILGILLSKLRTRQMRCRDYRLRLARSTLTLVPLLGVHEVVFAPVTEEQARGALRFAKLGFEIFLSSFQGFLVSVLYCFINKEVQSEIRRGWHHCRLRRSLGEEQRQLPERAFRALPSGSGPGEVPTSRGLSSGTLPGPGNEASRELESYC
Procedure, shortened: (§1)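 Cells were stimulated with peptide for 30 min at 37° C, then lysed in buffer carrying cAMP-d2 and anti-cAMP Eu3+-cryptate for a competitive HTRF read after at least 60 min at room temperature. The 665/620 nm ratio was converted to nM cAMP against a standard curve.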

[1] = target: T2, human GIP receptor (hGIPR) (Homo sapiens, UniProt P48546); test: [125I]-GIP binding, SPA with membranes of CHO cells expressing hGIPR
T2 construct: expressed in transfected cells; crude membranes
T2 sequence (P48546 22-466): T1 sequence (P48546 22-466)

hGCGR = target: T3, hGCGR (Homo sapiens, UniProt P47871); test: Functional cAMP formation (HTRF) in HEK-293 clonal cells expressing hGCGR, 0.1% bovine casein, without or with 1.0% human serum albumin; assay type: cell-based
T3 construct: expressed in transfected cells
T3 sequence (P47871 26-477): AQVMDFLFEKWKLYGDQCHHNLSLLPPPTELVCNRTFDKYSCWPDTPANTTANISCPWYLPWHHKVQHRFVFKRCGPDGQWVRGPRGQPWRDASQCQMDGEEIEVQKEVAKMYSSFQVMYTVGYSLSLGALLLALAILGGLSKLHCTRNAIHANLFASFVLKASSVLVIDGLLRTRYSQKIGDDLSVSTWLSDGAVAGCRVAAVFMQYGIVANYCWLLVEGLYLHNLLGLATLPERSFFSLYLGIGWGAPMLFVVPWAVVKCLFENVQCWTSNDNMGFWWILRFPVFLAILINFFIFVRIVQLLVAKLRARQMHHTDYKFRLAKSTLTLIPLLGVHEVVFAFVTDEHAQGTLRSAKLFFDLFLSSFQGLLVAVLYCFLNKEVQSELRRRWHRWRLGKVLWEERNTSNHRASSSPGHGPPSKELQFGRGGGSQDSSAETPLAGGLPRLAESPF
Procedure, shortened: as §1

hGLP-1R = hGLP-1R (Homo sapiens, UniProt P43220); test: Functional cAMP formation (HTRF) in HEK-293 clonal cells expressing hGLP-1R, 0.1% bovine casein, without or with 1.0% human serum albumin; assay type: cell-based; design: expressed in transfected cells; settings: for Emax: percent of maximal response to GLP-1(7-36)NH2, arithmetic mean
Chain of hGLP-1R (P43220 24-463): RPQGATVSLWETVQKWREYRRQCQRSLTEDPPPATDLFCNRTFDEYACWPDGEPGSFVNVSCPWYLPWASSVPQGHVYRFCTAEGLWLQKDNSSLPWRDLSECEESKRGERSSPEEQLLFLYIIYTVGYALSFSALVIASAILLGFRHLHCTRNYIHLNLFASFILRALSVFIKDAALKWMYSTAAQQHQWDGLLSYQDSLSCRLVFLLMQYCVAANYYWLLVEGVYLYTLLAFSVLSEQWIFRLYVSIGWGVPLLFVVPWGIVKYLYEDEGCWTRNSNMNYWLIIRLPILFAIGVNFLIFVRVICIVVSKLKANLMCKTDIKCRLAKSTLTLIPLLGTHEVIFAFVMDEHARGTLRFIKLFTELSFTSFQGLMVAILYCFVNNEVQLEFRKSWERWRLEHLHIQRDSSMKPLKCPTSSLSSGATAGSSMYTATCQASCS
Procedure, shortened: as §1

[2] = HEK293, read-out: hGIPR Emax, % ± SEM, cAMP, 37° C., 0.1% bovine casein and 1.0% human serum albumin
[3] = hGIPR EC50, nM (SEM, n), cAMP, 37° C., 0.1% bovine casein (no human serum albumin), geometric mean
[4] = hGCGR EC50, nM (SEM, n), cAMP, 37° C., 0.1% bovine casein (no human serum albumin), geometric mean
[5] = hGCGR EC50, nM (SEM, n), cAMP, 37° C., 0.1% bovine casein and 1.0% human serum albumin, geometric mean (SEM, n)
[6] = hGLP-1R EC50, nM (SEM, n), cAMP, 37° C., 0.1% bovine casein (no human serum albumin), geometric mean
[7] = human GIPR, geometric mean (SEM, n), read-out: Binding Affinity Ki, nM (SEM, n) hGIPR

## CC[C@H](C)[C@H](NC(=O)[C@H](CC(C)C)NC(=O)[C@](C)(Cc1ccc(O)cc1)NC(=O)[C@H](CCCCNC(=O)CCCCCNC(=O)COCCOCCNC(=O)CC[C@H](NC(=O)CCCCCCCCCOc1ccc(C(=O)O)cc1)C(=O)O)NC(=O)[C@@H](NC(=O)[C@H](Cc1ccccc1)NC(=O)[C@H](CCCN)NC(=O)C(C)(C)NC(=O)[C@H](CCC(N)=O)NC(=O)[C@H](C)NC(=O)[C@H](CCC(N)=O)NC(=O)[C@H](CCCN)NC(=O)[C@H](CC(=O)O)NC(=O)[C@H](CC(C)C)NC(=O)[C@](C)(CC(C)C)NC(=O)[C@@H](NC(=O)C(C)(C)NC(=O)[C@H](Cc1ccncc1)NC(=O)[C@H](CC(=O)O)NC(=O)[C@H](CO)NC(=O)[C@@H](NC(=O)[C@](C)(Cc1ccccc1F)NC(=O)[C@@H](NC(=O)CNC(=O)[C@H](CCC(=O)O)NC(=O)C(C)(C)NC(=O)[C@@H](N)Cc1ccc(O)cc1)[C@@H](C)O)[C@@H](C)O)[C@@H](C)CC)[C@@H](C)CC)C(=O)N[C@@H](CCCCNC(=O)CCCCCNC(=O)COCCOCCNC(=O)CC[C@H](NC(=O)CCCCCCCCCOc1ccc(C(=O)O)cc1)C(=O)O)C(=O)NCC(=O)NCC(=O)N1CCC[C@H]1C(=O)N[C@@H](CO)C(=O)N[C@@H](CO)C(=O)NCC(=O)N[C@@H](C)C(=O)N1CCC[C@H]1C(=O)N1CCC[C@H]1C(=O)N1CCC[C@H]1C(=O)N[C@@H](CO)C(N)=O [Example 455]
hGIPR; [2]
  Emax: 91.8%
hGIPR; [3]
  EC50: 0.0146 nM
[1]
  Ki: 0.0143 nM
hGCGR; [4]
  EC50: > 9950 nM
hGCGR; [5]
  EC50: > 9950 nM
hGLP-1R; HEK293, read-out: hGLP-1R Emax, % ± SEM, cAMP, 37° C., 0.1% bovine casein
  Emax: 117%
hGLP-1R; [6]
  EC50: 0.219 nM

## CCCCCCCCCCCCCC(=O)N[C@@H](CCC(=O)NCCOCCOCC(=O)NCCOCCOCC(=O)NCCCC[C@H](NC(=O)CNC(=O)CNC(=O)[C@H](CCC(=O)O)NC(=O)[C@@H](NC(=O)[C@H](CC(C)C)NC(=O)[C@](C)(Cc1ccc(O)cc1)NC(=O)[C@@H](CCC(=O)O)NC(=O)[C@@H](NC(=O)[C@H](Cc1ccccc1)NC(=O)[C@H](CCC(=O)O)NC(=O)C(C)(C)NC(=O)[C@H](CCC(N)=O)NC(=O)[C@H](C)NC(=O)[C@H](CCCCNC(=O)COCCOCCNC(=O)COCCOCCNC(=O)CC[C@H](NC(=O)CCCCCCCCCCCCC)C(=O)O)NC(=O)[C@H](CCCN)NC(=O)[C@H](CC(=O)O)NC(=O)[C@H](CC(C)C)NC(=O)[C@](C)(CC(C)C)NC(=O)[C@@H](NC(=O)[C@H](CO)NC(=O)[C@H](Cc1ccncc1)NC(=O)[C@H](CC(=O)O)NC(=O)[C@H](CO)NC(=O)[C@@H](NC(=O)[C@](C)(Cc1ccccc1F)NC(=O)[C@@H](NC(=O)CNC(=O)[C@H](CCC(=O)O)NC(=O)C(C)(C)NC(=O)[C@@H](N)Cc1ccc(O)cc1)[C@@H](C)O)[C@@H](C)O)[C@@H](C)CC)[C@@H](C)CC)[C@@H](C)CC)C(=O)N[C@@H](CO)C(=O)N[C@@H](CO)C(=O)NCC(=O)N[C@@H](C)C(=O)N1CCC[C@H]1C(=O)N1CCC[C@H]1C(=O)N1CCC[C@H]1C(=O)N[C@@H](CO)C(N)=O)C(=O)O [Example 8]
hGIPR; 0.1% bovine casein and 1.0% human serum albumin, 37° C., geometric mean, read-out: hGIPR EC50, nM (SEM, n)
  EC50: 0.635 nM
hGIPR; HEK293, 0.1% bovine casein and 1.0% human serum albumin, 37° C., read-out: hGIPR Emax, % ± SEM
  Emax: 91.3 ± 3.11%
[1]; [7]
  Ki: 0.024 nM
hGCGR; 0.1% bovine casein and 1.0% human serum albumin, 37° C., geometric mean, read-out: hGCGR EC50, nM (SEM, n)
  EC50: > 9950 nM
hGCGR; cAMP, incubated at 37° C., 0.1% bovine casein (no human serum albumin), geometric mean, read-out: hGCGR EC50, nM (SEM, n)
  EC50: > 9950 nM
hGLP-1R; 0.1% bovine casein and 1.0% human serum albumin, 37° C., geometric mean, read-out: hGLP-1R EC50, nM (SEM, n)
  EC50: 8 nM

## CCCC[C@H](NC(=O)[C@H](CC(=O)O)NC(=O)[C@H](CO)NC(=O)[C@@H](NC(=O)[C@](C)(Cc1ccccc1F)NC(=O)[C@@H](NC(=O)CNC(=O)[C@H](CCC(=O)O)NC(=O)C(C)(C)NC(=O)[C@@H](N)Cc1ccc(O)cc1)[C@@H](C)O)[C@@H](C)O)C(=O)N[C@@H](CO)C(=O)N[C@H](C(=O)N[C@@](C)(CC(C)C)C(=O)N[C@@H](CC(C)C)C(=O)N[C@@H](CC(=O)O)C(=O)N[C@@H](CCCN)C(=O)N[C@@H](CCC(N)=O)C(=O)N[C@@H](C)C(=O)N[C@@H](CCC(N)=O)C(=O)NC(C)(C)C(=O)N[C@@H](CCCN)C(=O)N[C@@H](Cc1ccccc1)C(=O)N[C@H](C(=O)N[C@@H](CCCCNC(=O)COCCOCCNC(=O)COCCOCCNC(=O)CC[C@H](NC(=O)CCCCCCCCCCCCC(=O)O)C(=O)O)C(=O)N[C@@](C)(Cc1ccc(O)cc1)C(=O)N[C@@H](CC(C)C)C(=O)N[C@H](C(=O)N[C@@H](CCCCNC(=O)COCCOCCNC(=O)COCCOCCNC(=O)CC[C@H](NC(=O)CCCCCCCCCCCCC(=O)O)C(=O)O)C(=O)NCC(=O)NCC(=O)N1CCC[C@H]1C(=O)N[C@@H](CO)C(=O)N[C@@H](CO)C(=O)NCC(=O)N[C@@H](C)C(=O)N1CCC[C@H]1C(=O)N1CCC[C@H]1C(=O)N1CCC[C@H]1C(=O)N[C@@H](CO)C(N)=O)[C@@H](C)CC)[C@@H](C)CC)[C@@H](C)CC [Example 490]
hGIPR; HEK293, cAMP, 37° C., 0.1% bovine casein and 1.0% human serum albumin, read-out: hGIPR Emax, % ± SEM
  Emax: 97.1%
hGIPR; HEK293, cAMP, 37° C., 0.1% bovine casein, arithmetic mean, read-out: hGIPR Emax, % ± SEM
  Emax: 110%
hGIPR; cAMP, 37° C., 0.1% bovine casein (no human serum albumin), geometric mean, read-out: hGIPR EC50, nM (SEM, n)
  EC50: 0.0122 nM
hGIPR; cAMP, 37° C., 0.1% bovine casein and 1.0% human serum albumin, geometric mean (SEM, n), read-out: hGIPR EC50, nM (SEM, n)
  EC50: 0.976 nM
[1]; [7]
  Ki: 0.0288 nM
hGCGR; cAMP, 37° C., 0.1% bovine casein (no human serum albumin), geometric mean, read-out: hGCGR EC50, nM (SEM, n)
  EC50: > 9950 nM
hGCGR; cAMP, 37° C., 0.1% bovine casein and 1.0% human serum albumin, geometric mean (SEM, n), read-out: hGCGR EC50, nM (SEM, n)
  EC50: > 9950 nM
hGLP-1R; HEK293, cAMP, 37° C., 0.1% bovine casein, read-out: hGLP-1R Emax, % ± SEM
  Emax: 115%
hGLP-1R; cAMP, 37° C., 0.1% bovine casein (no human serum albumin), geometric mean, read-out: hGLP-1R EC50, nM (SEM, n)
  EC50: 0.143 nM

## CC[C@H](C)[C@H](NC(=O)[C@H](CC(C)C)NC(=O)[C@](C)(Cc1ccc(O)cc1)NC(=O)[C@H](CCCCNC(=O)COCCOCCNC(=O)COCCOCCNC(=O)CC[C@H](NC(=O)CCCCCCCCCOc1ccc(C(=O)O)cc1)C(=O)O)NC(=O)[C@@H](NC(=O)[C@H](Cc1ccccc1)NC(=O)[C@H](CCCN)NC(=O)C(C)(C)NC(=O)[C@H](CCC(N)=O)NC(=O)[C@H](C)NC(=O)[C@H](CCC(N)=O)NC(=O)[C@H](CCCN)NC(=O)[C@H](CC(=O)O)NC(=O)[C@H](CC(C)C)NC(=O)[C@](C)(CC(C)C)NC(=O)[C@@H](NC(=O)C(C)(C)NC(=O)[C@H](Cc1ccncc1)NC(=O)[C@H](CC(=O)O)NC(=O)[C@H](CO)NC(=O)[C@@H](NC(=O)[C@](C)(Cc1ccccc1F)NC(=O)[C@@H](NC(=O)CNC(=O)[C@H](CCC(=O)O)NC(=O)C(C)(C)NC(=O)[C@@H](N)Cc1ccc(O)cc1)[C@@H](C)O)[C@@H](C)O)[C@@H](C)CC)[C@@H](C)CC)C(=O)N[C@@H](CCCCNC(=O)COCCOCCNC(=O)COCCOCCNC(=O)CC[C@H](NC(=O)CCCCCCCCCOc1ccc(C(=O)O)cc1)C(=O)O)C(=O)NCC(=O)NCC(=O)N1CCC[C@H]1C(=O)N[C@@H](CO)C(=O)N[C@@H](CO)C(=O)NCC(=O)N[C@@H](C)C(=O)N1CCC[C@H]1C(=O)N1CCC[C@H]1C(=O)N1CCC[C@H]1C(=O)N[C@@H](CO)C(N)=O [Example 440]
hGIPR; [2]
  Emax: 90.3%
hGIPR; [3]
  EC50: 0.0104 nM
[1]
  Ki: 0.0312 nM
hGCGR; [4]
  EC50: > 10100 nM
hGCGR; [5]
  EC50: > 10100 nM
hGLP-1R; [6]
  EC50: 0.18 nM
hGLP-1R; hGLP-1R EC50, nM (SEM, n), cAMP, 37° C., 0.1% bovine casein and 1.0% human serum albumin, geometric mean (SEM, n)
  EC50: 2.74 nM
